Assay results: US6391595B1, “Transferase and amylase, process for producing the enzymes, use thereof, and gene coding for the same” (Kirin Beer Kabushiki Kaisha, priority 1994, dated 2002)

Legend:
[1] = tested on: transferase derived from the Sulfolobus acidocaldarius strain ATCC 33909; experiment: Inhibitor of transferase (glucosyltrehalose-producing activity); type: biochemical; conditions: 5 mM CuSO4
Method: (§1) The influence of each substance listed in Table 8, such as an activating effect or inhibitory effect, was evaluated using similar activity-measuring method to that in Example I-1. Specifically, the listed substances were individually added together with the substrate to the same reaction system as that in the method for measuring glucosyltrehalose-producing activity employed in Example I-1.
(§2) Incidentally, each of the purified enzymes which were obtained in Examples I-3-I-5 and derived from the Sulfolobus solfataricus strain DSM 5833, the Sulfolobus acidocaldarius strain ATCC 33909, and the Acidianus brierleyi strain DSM 1651, respectively, was examined for enzymatic characteristics by using similar manner.

[2] = tested on: transferase derived from the Sulfolobus solfataricus strain DSM 5833; experiment: as above; type: biochemical; conditions: 5 mM CuSO4
Method: as §1, §2

[3] = tested on: transferase derived from the Acidianus brierleyi strain DSM 1651; experiment: as above; type: biochemical; conditions: 5 mM CuSO4
Method: as §1, §2

[4] = tested on: transferase derived from the Sulfolobus solfataricus strain KM1; experiment: Influence of activators and inhibitors on glucosyltrehalose-producing activity; type: biochemical
[5] = tested on: amylase derived from the Sulfolobus acidocaldarius strain ATCC 33909; experiment: Inhibitor of amylase (maltotriosyltrehalose-hydrolyzing activity); type: biochemical; conditions: 5 mM CuSO4
Method: (§3) The influence of each substance listed in Table 15, such as an activating effect or inhibitory effect, was evaluated using similar activity-measuring method to that in Example II-1. Specifically, the listed substances were individually added together with the substrate to the same reaction system as that in the method for measuring maltotriosyltrehalose-hydrolyzing activity employed in Example II-1. […] As to the inhibitory effect by SDS, however, the enzymatic activity revived after SDS was removed by dialysis, ultrafiltration or the like.
(§4) Additionally, each of the purified enzymes obtained in Examples II-3 and II-4, i.e. derived from the Sulfolobus solfataricus strain DSM 5833 and the Sulfolobus acidocaldarius strain ATCC 33909, respectively, was also examined for the enzymatic characteristics in a similar manner.

[6] = tested on: amylase derived from the Sulfolobus solfataricus strain DSM 5833; experiment: as above; type: biochemical; conditions: 5 mM CuSO4
Method: as §3, §4

[7] = target: T1, amylase derived from the Sulfolobus solfataricus strain KM1 (Saccharolobus solfataricus, UniProt Q55088); experiment: biochemical; type: biochemical
T1 construct: endogenous in cells; host or cells: Sulfolobus solfataricus strain KM1 cells
T1 sequence (Q55088 1-559): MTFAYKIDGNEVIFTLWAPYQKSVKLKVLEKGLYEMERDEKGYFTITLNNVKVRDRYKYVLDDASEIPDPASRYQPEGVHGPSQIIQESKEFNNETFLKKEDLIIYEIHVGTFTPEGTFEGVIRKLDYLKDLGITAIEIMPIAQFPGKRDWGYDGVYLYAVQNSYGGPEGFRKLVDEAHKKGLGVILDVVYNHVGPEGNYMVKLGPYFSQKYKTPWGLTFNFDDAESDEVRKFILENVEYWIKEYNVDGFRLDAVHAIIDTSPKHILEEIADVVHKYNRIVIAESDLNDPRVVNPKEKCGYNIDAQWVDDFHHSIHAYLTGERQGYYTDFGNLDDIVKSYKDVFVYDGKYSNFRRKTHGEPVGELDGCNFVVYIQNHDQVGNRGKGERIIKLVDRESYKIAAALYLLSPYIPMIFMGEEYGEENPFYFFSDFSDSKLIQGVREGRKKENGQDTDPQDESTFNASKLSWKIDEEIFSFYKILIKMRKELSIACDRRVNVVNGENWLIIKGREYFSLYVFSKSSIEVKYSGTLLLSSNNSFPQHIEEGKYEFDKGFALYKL

[8] = tested on: debranching enzyme derived from the Sulfolobus solfataricus strain KM1; experiment: Influence of activators and inhibitors on debranching enzyme activity; type: biochemical
[9] = tested on: transferase derived from the Sulfolobus solfataricus strain KM1; experiment: Substrate specificity of the transferase (production of α-1,α-1-transferred isomer); type: biochemical
Method: It was investigated whether or not the present enzyme acts on each of the substrates listed in Table 9 below to produce its α-1,α-1-transferred isomer. Here, the activity measurement was performed in the same manner as in Example I-1.

[10] = target: T2, recombinant novel amylase (Saccharolobus solfataricus, UniProt Q55088); experiment: Substrate specificity of the recombinant novel amylase (crude enzyme solution)
T2 sequence (Q55088 1-559): T1 sequence (Q55088 1-559)

[11] = target: T1, amylase derived from the Sulfolobus solfataricus strain KM1; experiment: Substrate specificity of the purified amylase (hydrolyzing properties, TSK-gel Amide-80 HPLC); type: biochemical
Method: The hydrolyzing properties were analyzed by allowing 25.0 Units/ml (in terms of the enzymatic activity when maltotriosyltrehalose is used as the substrate) of the present purified enzyme to act on the various 10 mM substrates (except amylopectin and soluble starch were used as 2.8% solutions) listed in Table 16 below, and the hydrolyzed products were also analyzed.
Incidentally, each enzymatic activity in Table 16 is expressed with such a unit as 1 Unit equals the activity of liberating 1 μmol of each of the monosaccharide and disaccharide per hour.

Row | SMILES | Inhibitor, inhibited [1] | Inhibitor, inhibited [2] | Inhibitor, inhibited [3] | Inhibitor, inhibited ([4]; 5 mM CuSO4) | Residual activity ([4]; Concentration 5 mM) | Activating or inhibitory effect ([4]; added with the substrate) | Inhibitor, inhibited [5] | Inhibitor, inhibited [6] | Inhibitor, inhibited ([7]; 5 mM CuSO4) | Residual activity ([7]; Concentration 5 mM) | Activating or inhibitory effect ([7]; added with the substrate) | Residual activity ([8]; Concentration 5 mM) | Activating or inhibitory effect ([8]; added with the substrate) | Action of the enzyme on the substrate [9] | Action of the enzyme on the substrate [10] | Liberated oligosaccharide ([10]; 35.2 Units/ml crude enzyme solution, 10 mM substrate (amylopectin and soluble starch 3.0%)) | Production rate of mono- and disaccharides ([10]; 35.2 Units/ml crude enzyme solution, 10 mM substrate (amylopectin and soluble starch 3.0%), 1 Unit = 1 μmol per hour) | Action of the enzyme on the substrate [11] | Liberated oligosaccharide ([11]; 25.0 Units/ml enzyme, 10 mM substrate (amylopectin and soluble starch 2.8%)) | Production rate of mono- and disaccharides ([11]; 25.0 Units/ml enzyme, 10 mM substrate (amylopectin and soluble starch 2.8%), 1 Unit = 1 μmol per hour)
1 | O=S(=O)([O-])[O-].[Cu+2] [CuSO4] | 100% inhibited | 100% inhibited | 100% inhibited | 100% inhibited | 0.0% | inhibitory effects | 100% inhibited | 100% inhibited | 100% inhibited | 0% | inhibitory effects | 0.0% | inhibitory effects |  |  |  |  |  |  | 
2 | OC[C@H]1O[C@H](OC[C@H]2O[C@H](O[C@H]3[C@H](O)[C@@H](O)C(O)O[C@@H]3CO)[C@H](O)[C@@H](O)[C@@H]2O)[C@H](O)[C@@H](O)[C@@H]1O (some centres unmarked) [Panose] |  |  |  |  |  |  |  |  |  |  |  |  |  | did not act | did not act | not decomposed | 0 units/ml | did not act | not decomposed | 0 units/ml
